One test concerns the target T1, VDR (pGal4-VDR-LBD) (Homo sapiens, UniProt P11473).
T1 construct: the receptor expression vector pGal4-VDR-LBD (10 ng); expressed in transfected cells; host or cells: Caco-2 cells
T1 sequence (P11473 127-423 limits assumed): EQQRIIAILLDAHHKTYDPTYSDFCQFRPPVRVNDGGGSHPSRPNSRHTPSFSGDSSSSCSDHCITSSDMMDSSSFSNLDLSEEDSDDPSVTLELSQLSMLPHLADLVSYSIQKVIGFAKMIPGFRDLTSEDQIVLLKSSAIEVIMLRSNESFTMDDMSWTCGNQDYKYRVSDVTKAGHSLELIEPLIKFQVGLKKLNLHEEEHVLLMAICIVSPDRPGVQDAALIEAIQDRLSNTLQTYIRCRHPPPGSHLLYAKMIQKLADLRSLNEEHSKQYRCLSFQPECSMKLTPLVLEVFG
In words: VDR CTF (Caco-2 cell co-transfection assay). It is filed as cell-based. The note with it: Caco-2 cells, Gal4-responsive reporter pFRLuc; surrogate for calcemic activity. Here is the method:
2. The Caco-2 Cell Co-Transfection Assay:
The Caco-2 cell assay is an indicator for the undesirable condition of hypercalcemia. This co-transfection assay is a surrogate assay for in vivo calcemic activity of VDR ligands. […] Preferred assay results are greater than 1000 nM.
(2) Materials and Method for the Caco-2 Cell Assay:
Caco-2 cells, grown in phenol red free, DMEM (Invitrogen, Carlsbad, Calif.) containing 10% charcoal-stripped FCS (Hyclone, Logan, Utah), were transfected with Fugene 6 reagent (Roche Diagnostics, Indianapolis, Ind.). Cells (5000/well) were plated 18 h before transfection in a 96 well plate. The Cells were transfected with Gal4-responsive reporter pFRLuc (150 ng, Stratagene, La Jolla Calif.) and the receptor expression vector pGal4-VDR-LBD (10 ng), along with Fugene 6 reagent (0.2 μl/well). The DNA-Fugene complex was formed by incubating the mixture for 30 min at room temperature. The cells were transfected in triplicate for 5 h, and treated with various concentrations of VDR ligands (form 0.01 nM to 10,000 nM concentration range) 18 h post-transfection. The luciferase activity was quantified using Steady-Glo reagent kit (Promega, Madison, Wis.) as per manufacturer's specifications.

Test [1] relates to IL-10 production in PBMCs. The test can be described thus: Human IL-10 induction assay. The note with it: PBMC; TPA/PHA treated human PBMCs, IL-10 in supernatant by immunoassay. It is filed as cell-based. An excerpt: 6. The IL-10 Induction Assay
This is an in vitro efficacy assay for psoriasis, abscess and adhesion. Psoriasis involves both keratinocytes and immune cells. IL-10 is a unique cytokine because it is anti-inflammatory and immunosuppressive. This assay tells us whether a VDRM is able to function as an agonist in PBMCs (primary blood mononuclear cells) or not. A lower EC50 value is desirable in this assay since a compound with a lower EC50 value will be a better agonist in PBMCs. […] 7. Other Compound Assay Standards An alternative measure of the efficacy of compounds of the invention for treatment of osteoporosis is a numerical ratio calculated as follows: • Dose Threshold needed to induce hypercalcemia • divided by • Dose Threshold needed for bone efficacy An alternative measure of the efficacy of compounds of the invention for treatment of psoriasis is a numerical ratio calculated as follows: • Dose Threshold needed to induce hypercalcemia • divided by • Dose Threshold needed to induce keratinocyte proliferation For the above ratios, Dose Thresholds are determined from dose response curve data. 8. The CaT1 (Calcium Transport Protein 1) Assay The CaT1 Assay is an indicator for the undesirable condition of hypercalcemia. The higher the EC50 values for a compound the less calcemic it will be in vivo. […] Preferred assay results are greater than 1000 nM. Details of the Assay Methods: (1) Materials and Method for RXR-VDR Heterodimerization Assay: Transfection Method:
(6) Materials and Method for Human IL-10 Induction Assay:
Isolation of peripheral blood mononuclear cells (PBMCs): • A. Collect 50 ml of human blood and dilute with media, RPMI-1640. • B. Prepare sterile tubes with ficol. • C. Add diluted blood to tubes. • D. Centrifuge. • E. Discard the top layer and collect the cells from middle layer. • F. Divide all cells into four tubes and add media. • G. Centrifuge. • H. Aspirate off media and resuspend. • I. Collect all cells • J. Centrifuge. at 1200 rpm for 10 minutes. • K. Resuspend in RPMI-1640 with 2% FBS and count cells
Stimulation of PBMC: • L. Prepare TPA in DMSO. • M. Dissolve PHA in water. • N. Plate TPA/PHA treated PBMCs in well plates. • O. Incubate.
Treatment: • P. Prepare all compound dilutions in plain RPMI-1640 media. • Q. Add diluted compound. • R. Incubate.
Sample Collection and Assay: • S. Remove all the cells by centrifugation and assay the supernatant for IL-10 by immunoassay. • 1) T. Perform IL-10 assay using anti-human IL-10 antibody coated beads, as described by the manufacturer (Linco Research Inc., St. Charles, Mo.).

In patent publication US7595345B2, “Vitamin D receptor modulators” (Eli Lilly and Company, priority 2003, dated 2009) one finds EC50 and IC50 data, which are given here for two compounds.

By EC50 is commonly meant the concentration that produces a half-maximal response. For orientation: IC50 means the concentration at which inhibition is half-maximal. Lower therefore signals higher potency.

On to `CCC(O)(CC)COc1ccc(C(CC)(CC)c2ccc(C(=O)NCC(=O)O)c(C)c2)cc1C` [Ex. 3, (4-{1-ethyl-1-[4-(2-ethyl-2-hydroxy-butoxy)-3-methyl-phenyl]-propyl}-2-methyl-benzoylamino)-acetic acid], for which the EC50 on VDR (pGal4-VDR-LBD) was 819 nM. The IC50 in test [1] is 718 nM.

Consider `CCC(CC)(c1ccc(OCC(O)(C(C)C)C(C)C)c(C)c1)c1ccc(C(=O)NCC(=O)O)c(C)c1` [Ex. 4, (4-{1-Ethyl-1-[4-(2-hydroxy-2-isopropyl-3-methyl-butoxy)-3-methyl-phenyl]-propyl}-2-methyl-benzoylamino)-acetic acid], for which the concentration giving a half-maximal response (EC50) on VDR (pGal4-VDR-LBD) is 974 nM. The same compound yielded an IC50 in test [1] of 477 nM.
